Paper PMC8815882, “Screening the pandemic response box identified benzimidazole carbamates, Olorofim and ravuconazole as promising drug candidates for the treatment of eumycetoma” (PLoS Neglected Tropical Diseases, 2022)
Where two headings read alike, the source gives them in different places.

Test system: M. mycetomatis genome strain MM55
Experiment: CLSI M38-A2 based in vitro susceptibility screening (XTT or resazurin), growth at fixed concentration
Type: cell-based, Madurella mycetomatis
Conditions: Madurella mycetomatis; for Percent fungal survival at 100 µM: read-out: Percentage survival at 100um, 100 uM A (second replicate column)
[1] = mean of replicates, read-out: Percentage survival at 25um, 25 uM mean
[2] = replicate A, read-out: Percentage survival at 25um, 25 um A
[3] = replicate B, read-out: Percentage survival at 25um, 25 uM B
[4] = replicate C, read-out: Percentage survival at 25um, 25 uM C
[5] = mean of replicates, read-out: Percentage survival at 100um, 100 uM mean
[6] = replicate 1, read-out: Percentage survival at 100um, 100 uM A
[7] = replicate 2, read-out: Percentage survival at 100um, 100 uM A
[8] = replicate 3, read-out: Percentage survival at 100um, 100 uM A
[9] = mean of three replicates, read-out: Percentage survival at 25um, 25 uM mean
[10] = mean of three replicates, read-out: Percentage survival at 100um, 100 uM mean
[11] = replicate 1, read-out: Percentage survival at 100um, 100 uM A (first replicate column)
[12] = replicate 3, read-out: Percentage survival at 100um, 100 uM A (third replicate column)
[13] = mean of three, M. mycetomatis MM55, read-out: Percentage survival at 25um, 25 uM mean
[14] = replicate A, M. mycetomatis MM55, read-out: Percentage survival at 25um, 25 um A
[15] = replicate B, M. mycetomatis MM55, read-out: Percentage survival at 25um, 25 uM B
[16] = replicate C, M. mycetomatis MM55, read-out: Percentage survival at 25um, 25 uM C
[17] = mean of three, M. mycetomatis MM55, read-out: Percentage survival at 100um, 100 uM mean
[18] = replicate 1, M. mycetomatis MM55, read-out: Percentage survival at 100um, 100 uM A (first replicate column)
[19] = replicate 2, M. mycetomatis MM55
[20] = replicate 3, M. mycetomatis MM55, read-out: Percentage survival at 100um, 100 uM A (third replicate column)

## COc1ccc(SC(=O)N[C@H](CCC(=O)O)C(=O)O)cc1 [MMV1580846]
[1]
  activity at 25 µM: 85%
[2]
  activity at 25 µM: 78.8%
[3]
  activity at 25 µM: 91.4%
[4]
  activity at 25 µM: 84.8%
[5]
  activity at 100 µM: 45.7%
[6]
  activity at 100 µM: -2.83%
[7]
  activity at 100 µM: 55.8%
[8]
  activity at 100 µM: 84.3%

## CCCCCc1ccc(C(=O)NCCn2cc(CCCCCc3cnc(N)[nH]3)nn2)cc1 [MMV1580847]
[9]
  activity at 25 µM: 63.2%
[2]
  activity at 25 µM: 58%
[3]
  activity at 25 µM: 61.7%
[4]
  activity at 25 µM: 70%
[10]
  activity at 100 µM: 64.8%
[11]
  activity at 100 µM: 67%
Replicate 2
  Percent fungal survival at 100 µM: 95.2%
[12]
  activity at 100 µM: 32.1%

## NC(=O)c1cnc2ccc(S(=O)(=O)c3ccccc3)cc2c1Nc1ccc(O)cc1 [MMV1580848]
[13]
  activity at 25 µM: 78.8%
[14]
  activity at 25 µM: 86.9%
[15]
  activity at 25 µM: 78.3%
[16]
  activity at 25 µM: 71.3%
[17]
  activity at 100 µM: 83.2%
[18]
  activity at 100 µM: 89.3%
[19]
  Percent fungal survival at 100 µM: 86.1%
[20]
  activity at 100 µM: 74.3%

## C=CCc1cc(Cc2cnc(N)nc2N)cc(OC)c1O [MMV1580849]
[1]
  activity at 25 µM: 96.4%
[2]
  activity at 25 µM: 100%
[3]
  activity at 25 µM: 95.7%
[4]
  activity at 25 µM: 93.6%
[5]
  activity at 100 µM: 91.3%
[6]
  activity at 100 µM: 101%
[7]
  activity at 100 µM: 86.2%
[8]
  activity at 100 µM: 86.7%

## Fc1ccc(-n2cc(Cn3c(-c4cccc(F)c4)nc4ccccc43)nn2)cc1 [MMV1580850]
[13]
  activity at 25 µM: 60.8%
[14]
  activity at 25 µM: 55.7%
[15]
  activity at 25 µM: 55.1%
[16]
  activity at 25 µM: 71.7%
[17]
  activity at 100 µM: 85.9%
[18]
  activity at 100 µM: 71.4%
[19]
  Percent fungal survival at 100 µM: 60.3%
[20]
  activity at 100 µM: 126%

## CCCCCOc1ccc(/C=C2\Oc3c(ccc(O)c3O)C2=O)c(O)c1 [MMV1580851]
[13]
  activity at 25 µM: 102%
[14]
  activity at 25 µM: 93.6%
[15]
  activity at 25 µM: 82.3%
[16]
  activity at 25 µM: 129%
[17]
  activity at 100 µM: 90%
[18]
  activity at 100 µM: 82.6%
[19]
  Percent fungal survival at 100 µM: 98.4%
[20]
  activity at 100 µM: 89%

## CCCCc1ccc(-c2cc(C(=O)O)cc(-c3ccc(Cl)cc3)n2)cc1 [MMV1580852]
[9]
  activity at 25 µM: 33.8%
[2]
  activity at 25 µM: 3.56%
[3]
  activity at 25 µM: 69.1%
[4]
  activity at 25 µM: 28.7%
[10]
  activity at 100 µM: 4.07%
[11]
  activity at 100 µM: 5.06%
Replicate 2
  Percent fungal survival at 100 µM: -0.471%
[12]
  activity at 100 µM: 7.62%

## O=C(Nc1cccc(C2=NCCN2)c1)c1ccc(-c2ccc(C(=O)Nc3cccc(C4=NCCN4)c3)cc2)cc1 [MMV1580853]
mean, read-out: Percentage survival at 25um, 25 uM mean
  activity at 25 µM: 84.5%
[2]
  activity at 25 µM: 92.1%
[3]
  activity at 25 µM: 94.2%
[4]
  activity at 25 µM: 67.1%
mean, read-out: Percentage survival at 100um, 100 uM mean
  activity at 100 µM: 55.8%
Replicate (first column), read-out: Percentage survival at 100um, 100 uM A
  activity at 100 µM: 6.17%
Replicate (second column), read-out: Percentage survival at 100um, 100 uM A
  activity at 100 µM: 92%
Replicate (third column), read-out: Percentage survival at 100um, 100 uM A
  activity at 100 µM: 69.2%

## CCc1cc(O)c(Oc2cccnc2N)cc1F [MMV1580854]
[13]
  activity at 25 µM: 86.4%
[14]
  activity at 25 µM: 97.5%
[15]
  activity at 25 µM: 88.8%
[16]
  activity at 25 µM: 72.9%
[17]
  activity at 100 µM: 101%
[18]
  activity at 100 µM: 78.2%
[19]
  Percent fungal survival at 100 µM: 91.9%
[20]
  activity at 100 µM: 132%

## O=C(O)c1sccc1S(=O)(=O)n1ccc2cc(Br)ccc21 [MMV1580855]
[9]
  activity at 25 µM: 98.9%
[2]
  activity at 25 µM: 101%
[3]
  activity at 25 µM: 108%
[4]
  activity at 25 µM: 88.3%
[10]
  activity at 100 µM: 97.9%
[11]
  activity at 100 µM: 128%
Replicate 2
  Percent fungal survival at 100 µM: 86.2%
[12]
  activity at 100 µM: 79.1%

## Cc1ccccc1NC(=O)Nc1cccc([N+](=O)[O-])c1 [MMV1581029]
[9]
  activity at 25 µM: 89.2%
[2]
  activity at 25 µM: 95.8%
[3]
  activity at 25 µM: 97.7%
[4]
  activity at 25 µM: 74%
First replicate column, read-out: Percentage survival at 100um, 100 uM A
  activity at 100 µM: 95.6%
[10]
  activity at 100 µM: 92.5%
Second replicate column, read-out: Percentage survival at 100um, 100 uM A
  activity at 100 µM: 104%
Third replicate column, read-out: Percentage survival at 100um, 100 uM A
  activity at 100 µM: 77.8%
